The text below walks through data of patent publication US20160082133A1, “CHEMICAL EXCHANGE SATURATION TRANSFER (CEST) BASED MRI USING REPORTER GENES AND SUBSTRATES AND METHODS THEREOF” (The Johns Hopkins University, priority 2013, published 2016).

Each structure is given as a SMILES string.

The nature of data set [1]: Quantification of exchange rates (QUESP, Bloch equation fitting). Conditions: 11.7 T, pH 7.4, 37° C. It is filed as physicochemical. The protocol: Exchange rates were quantified with the saturation power dependent CEST approach (QUESP) and Bloch equation fitting (McMahon et al., Magn. Res. Med. 2006, 55, 836). For each sample, the MTRasym was measured at the imino resonance frequency for CEST saturation fields of 43, 85, 128, 170, 213, 255, 340, and 426 Hz while the saturation pulse duration was kept constant at 4000 ms. The Bloch equations were then fit numerically to these MTRasym values using MATLAB (Mathworks), and the exchange rates (kex, s^−1) were determined from the fits. Errors (95% confidence limits) were estimated using the F statistic.

The nature of data set [2]: In vitro CEST-MRI of thymidine analogues at 11.7 T. In kind it is physicochemical. The following applies: pH 7.4, 37° C. The protocol:
All compounds were dissolved at a concentration of 20 mM in phosphate-buffered saline (PBS) (pH=7.4) and placed in microcapillaries, as described previously.^17 CESTMRI experiments were performed on a vertical 11.7 T scanner (Bruker Avance system) at 37° C. A modified RARE sequence (TR/TE=10 000/9.4 ms; RARE factor=16; 1 mm slice thickness; FOV=11×11 mm^2; matrix size=64×32; resolution=0.17×0.34 mm^2; and NA=2) including a magnetization transfer (MT) module ([…]) was used to acquire CEST-weighted images from −8 to +8 ppm with increments of 0.2 ppm around the water resonance, which was assigned to be at 0 ppm. Pixel-based B0 correction was used as described before using the same parameters as above except for TR=1500 ms and B1/tsat=21 Hz/500 ms, with a sweep range from −2 to +2 ppm (0.1 ppm steps). Data processing was performed using custom-written scripts in MATLAB (Mathworks). Mean CEST spectra were plotted from an ROI for each sample, after B0 correction. MTRasym=100×(S^−Aω−S^AωA/^‘−’0)/3 was computed at different offsets Aω.

Data set [3] is described as follows: In vitro CEST imaging on a clinical 3 Tesla MRI scanner. It is filed as physicochemical. The following applies: 3.0 T, 20 mM, pH 7.4, room temperature. The protocol:
Experiments were performed on a 3.0 Tesla Philips Achieva system (Philips Healthcare, Best, The Netherlands) using a body coil for transmit and a small animal solenoid coil for reception. CEST data were collected using a pulsed acquisition scheme (Jones, C. K. et al. Magn Reson Med 2011) with a 25 ms, 164 Hz frequency selective saturation pulse followed by a partial EPI readout (EPI factor 3). This TR interval was repeated until a 3D volume was acquired with 5 slices (slice thickness of 10 mm) across a field of view of 48×45 mm^2 (in plane resolution of 0.75 mm×0.9 mm) The acquisition per irradiation frequency consisted of TR/TE=65/5.5 ms and 4 averages. A total of 64 images were acquired which included an unsaturated volume and 63 saturated volumes with equally spaced frequency offsets between ±10 ppm (relative to the water frequency). The total acquisition time was 26 min 38 s. The experiments for B0 correction (Kim, M. et al. Magn Reson Med 2009, 61, 1441) were run the same except that 40 Hz frequency selective saturation pulse was used. Data processing was performed as described herein.

For data set [4] the following is noted: cited from earlier work.
Setting [5] is: at 5 ppm for 20 nM agent (so in the source).

Regarding `C[C@H]1CN([C@H]2C[C@H](O)[C@@H](CO)O2)C(=O)NC1=O` [Compound 1, (5S)-5,6-dihydrothymidine], in data set [1], the “kex of the imino proton” value is recorded as 0.8±0.2×10^3 s^−1. In data set [1] (5 ppm for 1-3, 6 ppm for dT), the “kex, quantified exchange rates of imino and water protons” value was 0.8 ± 0.2 ×10^3 s^−1. Besides, in data set [2] (setting [5]), the “MTRasym (8.5 Hz)” value is on record as 6%, the “MTRasym (170 Hz)” value was 18% and the “MTRasym (213 Hz)” value stood at 19%. Further, the “MTRasym (128 Hz)” value in data set [2] (at 5 ppm for 20 mM agent) is reported as 14%. In data set [3], the “MTRasym value at 5 ppm, higher compared to dT” value came out at 40%. The “pKa values of the imino proton obtained from the literature” value in data set [4] was 11.6^43.
